# Several values for one entry are separate records, joined by “and”; a condition that tells them apart may be missing. Equal values may be shown once.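 1) Cells in 96-well plates. 2) Compound, 48 h, 5 concentrations. 3) Linear interpolation between surrounding doses. 4) Unreached endpoint = highest concentration. GI50: concentration for 50% inhibition of growth. TGI: concentration producing complete growth inhibition.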
# Assays:
# Assay in all cases: DTP human tumour cell line panel, 48 h
# [1] = test system: SN12C renal
# [2] = test system: MDA-MB-231 breast
# [3] = test system: EKVX NSCLC
# [4] = test system: NCI-H522 lung
# [5] = test system: SF-268 CNS
# [6] = test system: SW-620 colon
# [7] = test system: UO-31 renal
# [8] = test system: HOP-92 NSCLC
# [9] = test system: SNB-19 CNS
# [10] = test system: SF-539 CNS
SMILES,TGI [1] [µM],TGI [2] [µM],TGI [3] [µM],TGI [4] [µM],TGI [5] [µM],TGI [6] [µM],TGI [7] [µM],TGI [8] [µM],TGI [9] [µM],TGI [10] [µM],GI50 [2],GI50 [10]
Cn1c(=O)c2c(nc3n(CC(O)CCl)c(=O)ccn23)n(C)c1=O (stereo not given),> 100,> 100,> 100,> 100,> 100,> 100,> 100,> 100,> 100,> 100,,
COc1cc2c(c3c1c(=O)c1ccccc1n3C)C=CC1(CCCC1)O2,37.2,38.2,26.4,33.5,46.8,37.2,,31.7,35.2,17.3,,
C=CCSC1=N/C(=C\c2ccc(Cl)cc2)C(=O)N1CC=C,95.1,> 100,57.3,79.9,> 100,> 100,> 100,82.2,> 100,> 100,,
COc1ccc(N2C(=O)C3c4[nH]c5ccc(OCc6ccccc6)cc5c4C4CCC(c5ccccc5)CC4C3C2=O)cc1 (stereo not given),> 100,27.3,38.2,> 44.6,37.4,4.61,> 96.9,10.3,40.1,7.17,,
O=C(O)CCc1nc2c(n1-c1ccccc1)C(=O)c1ccccc1C2=O,> 100,> 100,> 100,> 100,> 100,> 100,> 100,61.3,> 100,> 100,,
COC(=O)Cc1cc(O)c2c(c1O)C(=O)c1ccccc1C2=O,> 100,97.5,> 100,> 100,> 100,> 100,> 100,56,> 85.5,> 100,,
COc1cccc(N2C(=O)CSC2c2cccc(Oc3ccccc3)c2)c1 (stereo not given),25,79.1,61.4,20.6,42.9,> 100,> 100,62.8,> 100,15.9,,
COC(=O)[C@H]1C=NN[C@@H]1C(=O)N1[C@H]2CC3CC[C@@]2(CS1(=O)=O)C3(C)C,> 100,> 100,> 100,> 100,> 100,> 100,> 100,> 100,> 100,> 100,,
O=c1[nH]c2nc3ccccc3c(=O)n2/c1=C/c1ccc(Cl)cc1,> 100,> 100,,71.8,> 100,59.7,> 100,> 100,79.8,47.7,,
CC1=NNC(=O)C1C1C(=O)NN=C(c2c[nH]c3ccccc23)C1Br (stereo not given),> 100,> 100,> 100,92.4,> 100,> 100,> 100,> 100,> 100,> 100,,
c1ccc(/C(=N/Nc2nc3ccccc3s2)C2CCCCC2)nc1,22.7,27.3,25.5,7.32,25,20.1,15.4,22.1,30.6,27.5,,
O=C(Nc1ccc(N2C(=O)CSC2c2ccccc2O)cc1)c1ccc(N2C(=O)CSC2c2ccccc2O)cc1 (stereo not given),> 100,> 100,> 100,> 100,> 100,> 100,> 100,86.4,> 100,> 100,,
Cc1ccc(C(=N)c2ccccc2Cc2cccc3ccccc23)c2ccccc12,> 100,> 100,> 100,> 100,> 100,> 100,> 100,> 100,> 100,> 100,,
COC(=O)C1(NC(=O)C(CC(=O)OCc2ccccc2)NC(=O)OCc2ccccc2)CCCCCC1 (stereo not given),,> 100,> 100,> 100,> 100,> 100,> 100,> 100,> 100,49.2,,
CCOC(=O)c1c(C)n(Cc2ccc(Cl)cc2Cl)c2c1cc(O)c1[nH]c3c(c12)CCCC3,58.6,> 100,> 100,38.8,56.4,> 100,51.3,43,58,56.9,,
COc1ccc([C@H]2[C@H]3COC(=O)[C@H]3C(C#N)=C3Sc4ccccc4N32)cc1,36.4,> 67.2,> 100,> 68.2,> 100,> 100,> 100,> 100,> 100,> 100,,

SMILES,TGI [1] [µM],TGI [2] [µM],TGI [3] [µM],TGI [4] [µM],TGI [5] [µM],TGI [6] [µM],TGI [7] [µM],TGI [8] [µM],TGI [9] [µM],TGI [10] [µM],GI50 [2],GI50 [10]
CC(=O)c1c(-c2cccc3ccccc23)c(C#N)c(=S)n(C2OC(CO)C(O)C(O)C2O)c1C (stereo not given),> 100,> 100,32.4,> 100,> 100,> 100,> 100,> 100,> 100,> 100,> 100 µM and 37.5 µM,> 100 µM and 39.6 µM
C[C@@]1(O)C2CC3CC1(c1ccccc1)CC(/C3=N/O)/C2=N\O (stereo not given in full),> 100,> 100,> 100,> 100,> 100,> 100,> 100,> 100,> 100,> 100,,
NC(=O)Nc1c(Cl)cc(S(N)(=O)=O)cc1Cl,> 100,> 100,> 100,> 100,> 100,> 100,> 100,> 100,> 100,> 100,,
OC1[C@@H]2[C@@H](O)CCCN2C[C@@H](O)[C@H]1O (stereo not given in full),> 100,> 100,> 100,> 100,> 100,> 100,> 100,> 100,> 100,> 100,,
CC1CC[C@@]2(OC1)OC1C[C@H]3[C@@H]4CC=C5CC(OC6OC(CO)C(OC7OC(CO)C(O)C(OC8OCC(O)C(O)C8O)C7OC7OC(CO)C(OC8OC(C)C(OC9OC(C)C(O)C(O)C9O)C(O)C8O)C(O)C7O)C(O)C6O)CCC5(C)[C@H]4CCC3(C)C1[C@@H]2C (stereo not given in full),17,11.9,15.3,16.8,18,22.9,,14.8,11.6,12.7,,
CCc1n[nH]c(=O)n1CCCCCCCCCCCCn1c(CC)n[nH]c1=O,> 100,> 100,> 100,> 100,> 100,> 100,> 100,> 100,> 100,> 100,,
C=CCOC(=O)N1c2ccc(O[Si](C)(C)C(C)(C)C)cc2[C@@]23O[C@@]24[C@@H]1C#C/C=C\C#C[C@]3(O)C(OC)(OC)C[C@@H]4C,> 100,> 100,> 100,> 100,> 100,> 100,> 100,> 100,> 100,> 100,,
O=C(O)CC(Cc1ccccc1Cl)C(=O)O (stereo not given),> 100,> 100,> 100,> 100,> 100,> 100,> 100,> 100,> 100,,,
O=c1[nH]c(Nc2ccccc2)nc2c1ncn2CC(O)CSCCO (stereo not given),> 100,> 100,> 100,> 100,> 100,> 100,,> 100,> 100,> 100,,
CCO/C(=N/S(=O)(=O)C(F)(F)F)N(C(C)C)C(C)C,> 100,> 100,> 100,> 100,> 100,> 100,,> 100,> 100,> 100,,
O=c1[nH]cc(NCCCl)c(=O)[nH]1,> 100,> 100,> 100,> 100,> 100,> 100,> 100,> 100,> 100,> 100,,
O=S1(=O)c2ccccc2Oc2ccc(C(/C=N/O)=N/O)cc21,> 100,> 100,57.7,26.7,> 100,,68.8,> 100,,84.8,,
Fc1ccc(C(OCCN2CCN(CCCc3ccccc3)CC2)c2ccc(F)cc2)cc1,15.8,11.3,15.2,12.4,14.6,> 50.6,12,11.6,14.5,,,
CC(=O)Nc1ccc2c(C)c3c(nc2n1)[nH]c1ccccc13,> 100,> 100,98.1,53.2,> 100,> 100,> 100,79,,> 100,,
C#CCNC(CSSCC(N)C(=O)O)C(=O)O (stereo not given),,> 100,> 100,> 100,> 100,> 100,> 100,> 100,> 100,> 100,,

# Source: PubChem BioAssay (NCI)
